US10246426B2, “Triazole compounds as T-type calcium channel blockers” (IDORSIA PHARMACEUTICALS LTD, priority 2014, dated 2019)

Biological target: Cav3.2 (Homo sapiens, UniProt O95180)
Assay: Calcium flux FLIPR assay, HEK293 cells recombinantly expressing Cav3.2
Type: cell-based
Conditions: Cav3.2-channel, Ca2+ entry stimulated by 10 mM CaCl2
In short: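 Fluo-4-loaded HEK293 cells stably expressing Cav3.2, seeded overnight at 37 °C; compounds diluted in TEAC buffer (pH 7.2) and preincubated 3 min before Ca2+ entry triggered with CaCl2 at 10 mM final. Area under FLIPR fluorescence trace fitted sigmoidally; IC50 relative to vehicle signal.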

Chain of Cav3.2 (O95180 whole entry, looked up): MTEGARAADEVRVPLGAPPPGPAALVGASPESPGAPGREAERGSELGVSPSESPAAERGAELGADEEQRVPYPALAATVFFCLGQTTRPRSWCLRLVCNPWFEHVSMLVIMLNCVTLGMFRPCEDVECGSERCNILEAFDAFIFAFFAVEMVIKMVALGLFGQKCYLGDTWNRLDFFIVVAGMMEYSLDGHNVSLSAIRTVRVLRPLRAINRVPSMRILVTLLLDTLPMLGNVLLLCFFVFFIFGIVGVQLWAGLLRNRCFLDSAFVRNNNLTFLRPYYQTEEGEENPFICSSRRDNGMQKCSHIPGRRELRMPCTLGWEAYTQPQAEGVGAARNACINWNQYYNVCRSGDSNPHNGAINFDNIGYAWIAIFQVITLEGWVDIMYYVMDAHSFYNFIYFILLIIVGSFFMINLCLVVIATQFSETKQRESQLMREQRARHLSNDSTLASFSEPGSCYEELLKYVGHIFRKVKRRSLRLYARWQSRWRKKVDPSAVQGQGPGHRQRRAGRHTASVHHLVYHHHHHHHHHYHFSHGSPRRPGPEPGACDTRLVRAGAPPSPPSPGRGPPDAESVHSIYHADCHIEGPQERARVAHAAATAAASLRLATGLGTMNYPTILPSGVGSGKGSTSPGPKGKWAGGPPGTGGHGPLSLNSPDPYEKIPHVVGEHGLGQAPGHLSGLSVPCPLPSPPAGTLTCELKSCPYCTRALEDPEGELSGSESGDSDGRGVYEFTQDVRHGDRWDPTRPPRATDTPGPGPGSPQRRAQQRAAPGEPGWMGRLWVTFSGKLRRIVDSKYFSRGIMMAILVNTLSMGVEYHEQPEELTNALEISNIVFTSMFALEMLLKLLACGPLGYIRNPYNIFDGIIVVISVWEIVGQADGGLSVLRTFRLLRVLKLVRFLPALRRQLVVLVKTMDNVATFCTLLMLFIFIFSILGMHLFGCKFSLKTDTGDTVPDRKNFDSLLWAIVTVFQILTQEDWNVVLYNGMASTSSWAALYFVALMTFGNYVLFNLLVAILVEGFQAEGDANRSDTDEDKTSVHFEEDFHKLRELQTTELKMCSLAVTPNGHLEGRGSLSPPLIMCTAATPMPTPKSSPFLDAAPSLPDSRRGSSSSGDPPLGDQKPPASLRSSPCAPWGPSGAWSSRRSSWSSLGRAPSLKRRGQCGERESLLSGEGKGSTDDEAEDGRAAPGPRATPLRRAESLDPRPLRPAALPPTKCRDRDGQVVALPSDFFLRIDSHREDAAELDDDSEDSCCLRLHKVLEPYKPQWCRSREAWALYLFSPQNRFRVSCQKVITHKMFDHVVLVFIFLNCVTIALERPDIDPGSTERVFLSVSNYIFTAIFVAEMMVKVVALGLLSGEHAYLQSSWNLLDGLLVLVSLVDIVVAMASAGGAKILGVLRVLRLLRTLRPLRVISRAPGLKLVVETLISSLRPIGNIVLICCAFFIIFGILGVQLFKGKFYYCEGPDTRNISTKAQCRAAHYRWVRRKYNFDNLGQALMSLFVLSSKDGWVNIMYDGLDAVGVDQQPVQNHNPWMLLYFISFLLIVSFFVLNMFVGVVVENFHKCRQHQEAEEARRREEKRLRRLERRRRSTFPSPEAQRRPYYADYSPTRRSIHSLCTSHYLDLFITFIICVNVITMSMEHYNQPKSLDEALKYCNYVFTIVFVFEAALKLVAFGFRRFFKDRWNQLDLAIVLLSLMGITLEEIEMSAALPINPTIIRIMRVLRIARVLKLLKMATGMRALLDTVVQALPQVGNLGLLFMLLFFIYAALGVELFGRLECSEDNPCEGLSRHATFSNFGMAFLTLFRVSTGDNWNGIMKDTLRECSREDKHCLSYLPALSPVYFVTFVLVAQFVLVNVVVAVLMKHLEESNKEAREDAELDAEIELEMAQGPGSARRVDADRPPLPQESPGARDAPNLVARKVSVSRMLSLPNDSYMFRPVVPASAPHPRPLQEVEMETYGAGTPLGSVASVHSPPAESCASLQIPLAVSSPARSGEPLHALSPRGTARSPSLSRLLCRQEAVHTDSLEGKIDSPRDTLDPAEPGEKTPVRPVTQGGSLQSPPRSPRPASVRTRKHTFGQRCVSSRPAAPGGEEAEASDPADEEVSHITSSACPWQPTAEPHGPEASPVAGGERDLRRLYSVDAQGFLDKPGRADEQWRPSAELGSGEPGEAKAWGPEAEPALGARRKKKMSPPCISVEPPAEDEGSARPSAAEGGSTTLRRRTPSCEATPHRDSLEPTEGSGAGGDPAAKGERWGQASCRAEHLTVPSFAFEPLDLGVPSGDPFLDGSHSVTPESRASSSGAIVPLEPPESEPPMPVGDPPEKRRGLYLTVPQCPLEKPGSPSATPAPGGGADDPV

| Compound | IC50 |
| --- | --- |
| COc1ccc(Cn2ncc(NC(=O)Cc3ccc(C4(C(F)(F)F)CC4)cc3)n2)cc1C#N [Example 203, N-[2-(3-Cyano-4-methoxy-benzyl)-2H-[1,2,3]triazol-4-yl]-2-[4-(1-trifluoromethyl-cyclopropyl)-phenyl]-acetamide] | 0.22 µM |
| CCCn1ncc2cc(CC(=O)Nc3cnn(Cc4ccc(F)c(F)c4)n3)ccc21 [Example 34, N-[2-(3,4-Difluoro-benzyl)-2H-[1,2,3]triazol-4-yl]-2-(1-propyl-1H-indazol-5-yl)-acetamide] | 0.018 µM |
| CC(C)(C)c1ccc(CC(=O)Nc2cnn(Cc3ccc(OC(F)(F)F)cc3)n2)cc1 [Example 90, 2-(4-tert-Butyl-phenyl)-N-[2-(4-trifluoromethoxy-benzyl)-2H-[1,2,3]triazol4-yl]-acetamide] | 0.2 µM |
| COc1c(F)cc(Cn2ncc(NC(=O)Cc3ccc(C4(C(F)(F)F)CC4)cc3)n2)cc1F [Example 145, N-[2-(3,5-Difluoro-4-methoxy-benzyl)-2H-[1,2,3]triazol-4-yl]-2-[4-(1-trifluoromethyl-cyclopropyl)-phenyl]-acetamide] | 0.12 µM |
| COc1cc(Cn2ncc(NC(=O)Cc3ccc4c(c3)c(C)cn4C)n2)cc(F)c1F [Example 240, N-[2-(3,4-Difluoro-5-methoxy-benzyl)-2H-[1,2,3]triazol-4-yl]-2-(1,3-dimethyl-1H-indol-5-yl)-acetamide] | 0.18 µM |
| CC(C)(C)c1ccc(CC(=O)Nc2cnn(Cc3ccc(C#N)cc3)n2)cc1 [Example 96, 2-(4-tert-Butyl-phenyl)-N-[2-(4-cyano-benzyl)-2H-[1,2,3]triazol-4-yl]-acetamide] | 0.044 µM |
| N#Cc1ccc(Cn2ncc(NC(=O)Cc3ccc(OCC4(F)COC4)cc3)n2)cc1 [Example 194, N-[2-(4-Cyano-benzyl)-2H-[1,2,3]triazol-4-yl]-2-[4-(3-fluoro-oxetan-3-ylmethoxy)-phenyl]-acetamide] | 0.34 µM |
| N#Cc1ccc(Cn2ncc(NC(=O)Cc3ccc(C4(C#N)CC4)cc3)n2)cc1F [Example 231, 2-[4-(1-Cyano-cyclopropyl)-phenyl]-N-[2-(4-cyano-3-fluoro-benzyl)-2H-[1,2,3]triazol-4-yl]-acetamide] | 0.036 µM |
| COCCOc1ccc(Cn2ncc(NC(=O)Cc3ccc4c(ccn4C)c3)n2)cc1 [Example 87, N-{2-[4-(2-Methoxy-ethoxy)-benzyl]-2H-[1,2,3]triazol-4-yl}-2-(1-methyl-1H-indol-5-yl)-acetamide] | 0.46 µM |
| Cc1nn(C)c2ccc(CC(=O)Nc3cnn(Cc4ccc(C#N)cc4)n3)cc12 [Example 102, N-[2-(4-Cyano-benzyl)-2H-[1,2,3]triazol-4-yl]-2-(1,3-dimethyl-1H-indazol-5-yl)-acetamide] | 0.16 µM |
| O=C(Cc1ccc(N2CCCC2)nc1)Nc1cnn(Cc2ccc(OC(F)(F)F)c(F)c2)n1 [Example 192, N-[2-(3-Fluoro-4-trifluoromethoxy-benzyl)-2H-[1,2,3]triazol-4-yl]-2-(6-pyrrolidin-1-yl-pyridin-3-yl)-acetamide] | 0.023 µM |
| Cc1cn(C)c2ccc(CC(=O)Nc3cnn(Cc4ccc(C#N)c(F)c4)n3)cc12 [Example 140, N-[2-(4-Cyano-3-fluoro-benzyl)-2H-[1,2,3]triazol-4-yl]-2-(1,3-dimethyl-1H-indol-5-yl)-acetamide] | 0.014 µM |
| COc1c(F)cc(Cn2ncc(NC(=O)Cc3ccc4c(cnn4C)c3)n2)cc1F [Example 82, N-[2-(3,5-Difluoro-4-methoxy-benzyl)-2H-[1,2,3]triazol-4-yl]-2-(1-methyl-1H-indazol-5-yl)-acetamide] | 0.023 µM |
| CCOc1ccc(Cn2ncc(NC(=O)Cc3ccc(N4CCCC4)nc3)n2)cc1 [Example 45, N-[2-(4-Ethoxy-benzyl)-2H-[1,2,3]triazol-4-yl]-2-(6-pyrrolidin-1-yl-pyridin-3-yl)-acetamide] | 0.032 µM |
| COc1cc(Cn2ncc(NC(=O)Cc3ccc(C(C)C)cc3)n2)cc(F)c1F [Example 222, N-[2-(3,4-Difluoro-5-methoxy-benzyl)-2H-[1,2,3]triazol-4-yl]-2-(4-isopropyl-phenyl)-acetamide] | 0.3 µM |
| Cc1cn(C)c2cc(CC(=O)Nc3cnn(Cc4ccc(C#N)cc4)n3)ccc12 [Example 106, N-[2-(4-Cyano-benzyl)-2H-[1,2,3]triazol-4-yl]-2-(1,3-dimethyl-1H-indol-6-yl)-acetamide] | 0.036 µM |
| COc1ccc(Cn2ncc(NC(=O)Cc3ccc(OCC4(C)COC4)cc3)n2)cc1F [Example 123, N-[2-(3-Fluoro-4-methoxy-benzyl)-2H-[1,2,3]triazol-4-yl]-2-[4-(3-methyl-oxetan-3-ylmethoxy)-phenyl]-acetamide] | 0.87 µM |
| CC(C)c1ccc(CC(=O)Nc2cnn(Cc3ccc(OC(F)(F)F)c(F)c3)n2)cc1 [Example 187, N-[2-(3-Fluoro-4-trifluoromethoxy-benzyl)-2H-[1,2,3]triazol-4-yl]-2-(4-isopropyl-phenyl)-acetamide] | 0.065 µM |
| CCOc1ccc(Cn2ncc(NC(=O)Cc3ccc4c(cnn4C)c3)n2)cc1 [Example 46, N-[2-(4-Ethoxy-benzyl)-2H-[1,2,3]triazol-4-yl]-2-(1-methyl-1H-indazol-5-yl)-acetamide] | 0.063 µM |
| Cc1nn(C)c2ccc(CC(=O)Nc3cnn(Cc4ccc(OC(F)(F)F)c(F)c4)n3)cc12 [Example 191, 2-(1,3-Dimethyl-1H-indazol-5-yl)-N-[2-(3-fluoro-4-trifluoromethoxy-benzyl)-2H-[1,2,3]triazol-4-yl]-acetamide] | 0.011 µM |
| Cc1cc(Cn2ncc(NC(=O)Cc3ccc4c(c3)c(C)cn4C)n2)ccc1C#N [Example 171, N-[2-(4-Cyano-3-methyl-benzyl)-2H-[1,2,3]triazol-4-yl]-2-(1,3-dimethyl-1H-indol-5-yl)-acetamide] | 0.022 µM |
| COc1ccc(Cn2ncc(NC(=O)Cc3ccc(C4(C)COC4)cc3)n2)cc1 [Example 60, N-[2-(4-Methoxy-benzyl)-2H-[1,2,3]triazol-4-yl]-2-[4-(3-methyl-oxetan-3-yl)-phenyl]-acetamide] | 0.12 µM |
| COC1(c2ccc(CC(=O)Nc3cnn(Cc4ccc(C#N)cc4)n3)cc2)COC1 [Example 237, N-[2-(4-Cyano-benzyl)-2H-[1,2,3]triazol-4-yl]-2-[4-(3-methoxy-oxetan-3-yl)-phenyl]-acetamide] | 0.2 µM |
| N#Cc1ccc(Cn2ncc(NC(=O)Cc3ccc(OCC4(F)COC4)cc3)n2)cc1F [Example 175, N-[2-(4-Cyano-3-fluoro-benzyl)-2H-[1,2,3]triazol-4-yl]-2-[4-(3-fluoro-oxetan-3-ylmethoxy)-phenyl]-acetamide] | 0.1 µM |
| COc1ccc(Cn2ncc(NC(=O)Cc3ccc(C(C)(C)C)cc3)n2)cc1 [Example 61, 2-(4-tert-Butyl-phenyl)-N-[2-(4-methoxy-benzyl)-2H-[1,2,3]triazol-4-yl]-acetamide] | 0.044 µM |
| Cc1ccc(Cn2ncc(NC(=O)Cc3ccc4c(cnn4C)c3)n2)cc1C#N [Example 204, N-[2-(3-Cyano-4-methyl-benzyl)-2H-[1,2,3]triazol-4-yl]-2-(1-methyl-1H-indazol-5-yl)-acetamide] | 0.28 µM |
| N#Cc1ccc(Cn2ncc(NC(=O)Cc3ccc(C4(F)COC4)cc3)n2)cc1 [Example 198, N-[2-(4-Cyano-benzyl)-2H-[1,2,3]triazol-4-yl]-2-[4-(3-fluoro-oxetan-3-yl)-phenyl]-acetamide] | 0.13 µM |
